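Following 48 hours of exposure in 96-well plates, responses at five concentrations were used to interpolate endpoints linearly. GI50 = concentration required for 50% inhibition of growth. TGI: total growth inhibition.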
What was measured:
Test in all cases: growth of human tumour cells (NCI), 48 h
SK-MEL-28 melanoma = test system: SK-MEL-28 melanoma
UACC-257 melanoma = test system: UACC-257 melanoma
SF-539 CNS = test system: SF-539 CNS
SF-295 CNS = test system: SF-295 CNS
T-47D breast = test system: T-47D breast
K-562 leukemia = test system: K-562 leukemia
M14 melanoma = test system: M14 melanoma
SNB-19 CNS = test system: SNB-19 CNS
PC-3 prostate = test system: PC-3 prostate
HT29 colon = test system: HT29 colon
HOP-62 NSCLC = test system: HOP-62 NSCLC
NCI-H522 lung = test system: NCI-H522 lung
U251 CNS = test system: U251 CNS
SF-268 CNS = test system: SF-268 CNS
UO-31 renal = test system: UO-31 renal
MOLT-4 leukemia = test system: MOLT-4 leukemia
OVCAR-8 ovarian = test system: OVCAR-8 ovarian
SK-OV-3 ovarian = test system: SK-OV-3 ovarian
CAKI-1 renal = test system: CAKI-1 renal
HOP-92 NSCLC = test system: HOP-92 NSCLC
MCF7 breast = test system: MCF7 breast
DU-145 prostate = test system: DU-145 prostate
EKVX NSCLC = test system: EKVX NSCLC
NCI-H23 lung = test system: NCI-H23 lung
COLO 205 colon = test system: COLO 205 colon
OVCAR-3 ovarian = test system: OVCAR-3 ovarian
NCI/ADR-RES ovarian = test system: NCI/ADR-RES ovarian
UACC-62 melanoma = test system: UACC-62 melanoma
SW-620 colon = test system: SW-620 colon
NCI-H226 lung = test system: NCI-H226 lung
786-0 renal = test system: 786-0 renal
HCT-15 colon = test system: HCT-15 colon
HS 578T breast = test system: HS 578T breast
SN12C renal = test system: SN12C renal
RXF 393 renal = test system: RXF 393 renal
TK-10 renal = test system: TK-10 renal
BT-549 breast = test system: BT-549 breast
KM12 colon = test system: KM12 colon
HCT-116 colon = test system: HCT-116 colon
A498 renal = test system: A498 renal
OVCAR-4 ovarian = test system: OVCAR-4 ovarian
HCC-2998 colon = test system: HCC-2998 colon
HL-60(TB) leukemia = test system: HL-60(TB) leukemia
LOX IMVI melanoma = test system: LOX IMVI melanoma
RPMI-8226 leukemia = test system: RPMI-8226 leukemia
IGROV1 ovarian = test system: IGROV1 ovarian
NCI-H460 lung = test system: NCI-H460 lung
ACHN renal = test system: ACHN renal
SNB-75 CNS = test system: SNB-75 CNS
SK-MEL-2 melanoma = test system: SK-MEL-2 melanoma
OVCAR-5 ovarian = test system: OVCAR-5 ovarian
SK-MEL-5 melanoma = test system: SK-MEL-5 melanoma
A549 NSCLC = test system: A549 NSCLC
MDA-MB-231 breast = test system: MDA-MB-231 breast
CCRF-CEM leukemia = test system: CCRF-CEM leukemia
MALME-3M melanoma = test system: MALME-3M melanoma
SR leukemia = test system: SR leukemia

`O=C1OCC2=C1C(c1cccc([N+](=O)[O-])c1)c1cc3c(cc1N2CCO)CCC3` (centres undefined) was tested, and the GI50 (SK-MEL-28 melanoma) was 1.3 µM, the TGI (SK-MEL-28 melanoma) was over 39.9 µM and the GI50 (UACC-257 melanoma) was 11.5 µM. It also gave a TGI (UACC-257 melanoma) of over 50 µM, a GI50 (SF-539 CNS) of 0.11 µM and a TGI (SF-539 CNS) of 0.38 µM. It also gave a GI50 (SF-295 CNS) of 0.0789 µM, a TGI (SF-295 CNS) of 16.4 µM and a GI50 (T-47D breast) of 0.355 µM. It also gave a TGI (T-47D breast) of over 50 µM, a GI50 (K-562 leukemia) of 0.0666 µM and a TGI (K-562 leukemia) of over 50 µM. For the same compound, the GI50 (M14 melanoma) was 0.112 µM, the TGI (M14 melanoma) was 17.2 µM and the GI50 (SNB-19 CNS) was 0.2 µM. It also gave a TGI (SNB-19 CNS) of over 50 µM, a GI50 (PC-3 prostate) of 0.145 µM and a TGI (PC-3 prostate) of over 50 µM. For the same compound, the GI50 (HT29 colon) was 0.176 µM, the TGI (HT29 colon) was 21.6 µM and the GI50 (HOP-62 NSCLC) was 0.199 µM. The TGI (HOP-62 NSCLC) was over 50 µM, the GI50 (NCI-H522 lung) was 0.0431 µM and the TGI (NCI-H522 lung) was 6.3 µM. The GI50 (U251 CNS) was 0.218 µM, the TGI (U251 CNS) was over 50 µM and the GI50 (SF-268 CNS) was 0.295 µM. The TGI (SF-268 CNS) was 22.9 µM, the GI50 (UO-31 renal) was 0.269 µM and the TGI (UO-31 renal) was over 34.3 µM. For the same compound, the GI50 (MOLT-4 leukemia) was 0.254 µM, the TGI (MOLT-4 leukemia) was 43.3 µM and the GI50 (OVCAR-8 ovarian) was 0.244 µM. It also gave a TGI (OVCAR-8 ovarian) of over 50 µM, a GI50 (SK-OV-3 ovarian) of 0.226 µM and a TGI (SK-OV-3 ovarian) of over 50 µM. It also gave a GI50 (CAKI-1 renal) of 0.083 µM, a TGI (CAKI-1 renal) of over 38 µM and a GI50 (HOP-92 NSCLC) of 2.66 µM. The TGI (HOP-92 NSCLC) was over 50 µM, the GI50 (MCF7 breast) was 0.0596 µM and the TGI (MCF7 breast) was over 50 µM. For the same compound, the GI50 (DU-145 prostate) was 0.19 µM, the TGI (DU-145 prostate) was over 24.5 µM and the GI50 (EKVX NSCLC) was 0.28 µM. The TGI (EKVX NSCLC) was over 50 µM, the GI50 (NCI-H23 lung) was 0.335 µM and the TGI (NCI-H23 lung) was over 50 µM. It also gave a GI50 (COLO 205 colon) of 0.153 µM, a TGI (COLO 205 colon) of 2.39 µM and a GI50 (OVCAR-3 ovarian) of 0.0961 µM. The TGI (OVCAR-3 ovarian) was 0.518 µM, the GI50 (NCI/ADR-RES ovarian) was 0.146 µM and the TGI (NCI/ADR-RES ovarian) was over 11.3 µM. It also gave a GI50 (UACC-62 melanoma) of 0.0298 µM, a TGI (UACC-62 melanoma) of over 24.8 µM and a GI50 (SW-620 colon) of 0.179 µM. It also gave a TGI (SW-620 colon) of over 50 µM, a GI50 (NCI-H226 lung) of 1.77 µM and a TGI (NCI-H226 lung) of 49.4 µM. It also gave a GI50 (786-0 renal) of 0.0822 µM, a TGI (786-0 renal) of 16.8 µM and a GI50 (HCT-15 colon) of 0.121 µM. The TGI (HCT-15 colon) was over 50 µM, the GI50 (HS 578T breast) was 0.18 µM and the TGI (HS 578T breast) was over 50 µM. It also gave a GI50 (SN12C renal) of 0.339 µM, a TGI (SN12C renal) of over 39.9 µM and a GI50 (RXF 393 renal) of 0.123 µM. The TGI (RXF 393 renal) was over 50 µM, the GI50 (TK-10 renal) was 6.42 µM and the TGI (TK-10 renal) was over 50 µM. It also gave a GI50 (BT-549 breast) of 0.177 µM, a TGI (BT-549 breast) of 5.32 µM and a GI50 (KM12 colon) of 0.0928 µM. It also gave a TGI (KM12 colon) of 19.8 µM, a GI50 (HCT-116 colon) of 0.148 µM and a TGI (HCT-116 colon) of 16 µM. The GI50 (A498 renal) was 0.0684 µM, the TGI (A498 renal) was 0.376 µM and the GI50 (OVCAR-4 ovarian) was 2.03 µM. It also gave a TGI (OVCAR-4 ovarian) of over 50 µM, a GI50 (HCC-2998 colon) of 0.188 µM and a TGI (HCC-2998 colon) of 9.58 µM. For the same compound, the GI50 (HL-60(TB) leukemia) was 0.137 µM, the TGI (HL-60(TB) leukemia) was 0.373 µM and the GI50 (LOX IMVI melanoma) was 0.286 µM. For the same compound, the TGI (LOX IMVI melanoma) was 8.29 µM, the GI50 (RPMI-8226 leukemia) was 0.25 µM and the TGI (RPMI-8226 leukemia) was over 39 µM. For the same compound, the GI50 (IGROV1 ovarian) was 0.255 µM, the TGI (IGROV1 ovarian) was over 50 µM and the GI50 (NCI-H460 lung) was 0.172 µM. It also gave a TGI (NCI-H460 lung) of 14.6 µM, a GI50 (ACHN renal) of 0.398 µM and a TGI (ACHN renal) of over 50 µM. For the same compound, the GI50 (SNB-75 CNS) was 0.0513 µM, the TGI (SNB-75 CNS) was 0.363 µM and the GI50 (SK-MEL-2 melanoma) was 2.8 µM. The TGI (SK-MEL-2 melanoma) was 48 µM, the GI50 (OVCAR-5 ovarian) was 0.231 µM and the TGI (OVCAR-5 ovarian) was over 50 µM. The GI50 (SK-MEL-5 melanoma) was 0.127 µM, the TGI (SK-MEL-5 melanoma) was 3.56 µM and the GI50 (A549 NSCLC) was 0.223 µM. The TGI (A549 NSCLC) was over 50 µM, the GI50 (MDA-MB-231 breast) was 0.271 µM and the TGI (MDA-MB-231 breast) was over 19.3 µM. The GI50 (CCRF-CEM leukemia) was 0.216 µM, the TGI (CCRF-CEM leukemia) was over 50 µM and the GI50 (MALME-3M melanoma) was 0.504 µM. For the same compound, the TGI (MALME-3M melanoma) was 35.1 µM, the GI50 (SR leukemia) was 0.0554 µM and the TGI (SR leukemia) was over 36.3 µM.
